From BindingDB's records for doi:10.1021/jm301365e (Sichuan University, 2012)

Target: Tyrosine-protein kinase SYK (Homo sapiens) (UniProt P43405)
Experiment: Inhibition of human recombinant SYK by radiometric kinase assay

Structure (SMILES): CN1CCN(c2ccc(Nc3ncc4nc(Nc5ccccc5)n(C5CCCC5)c4n3)cc2)CC1
- IC50: 720 nM
